6 substances from US20160340683A1, “NANOCARRIER BASED PLANT TRANSFECTION AND TRANSDUCTION” (HER MAJESTY THE QUEEN IN RIGHT OF CANADA AS REPRESENTED BY …, priority 2007, published 2016) can be followed below.

Entries after “also recorded” stand apart in the source; their conditions may differ. fluorescein = fluorescein label at the N-terminus

Assay [1] concerns isolated microspores of Triticale (variety Sunray). Kind of assay: CPP delivery of GUS enzyme into isolated microspores, GUS staining. It is filed as cell-based. Conditions: GUS enzyme cargo:CPP 1:4, 1 hour at 37° C., three repeats. The protocol: Triticale line Sunray grown in a growth cabinet with a photoperiod of 19 h day (intensity 300 μE m-2 s-1), and temperature 18-15° C. (day-night) with a relative humidity at about 70% was used as the donor plant material. The plants were fertilized every 2 weeks (20-20-20, 200 ppm) and treated with 2.5 ml I-1 Tilt™ (propiconazole, Syngenta) during the tillering stage and Intercept™ (0.004 g per litre of soil, Imidacloprid, Bayer) once sufficient root development was established. The first 10 tillers from each pot were harvested when the spike was at 3-4 cm, depending on the crop, from emergence from the boot. These tillers (to be used for microspore isolation) were subjected to pre-treatment in a refrigerator (4° C.) for 21 days with their bases in distilled water and their heads wrapped in aluminum foil. After 21±3 days of pre-treatment, the spikes were excised from their tillers and after an evaluation of their general appearance, only the most homogenous spikes were used. After confirming microspores at mid to bi-nucleate stage from a median floret, using acetocarmine staining, the tillers were processed for extraction.
Awns were removed with scissors in a laminar flow hood. Eight-fourteen spikes were used for microspore isolation. They were sterilized with 10% bleach (5.25% sodium hypochlorite) for 3 min followed by rinsing in sterile double distilled water four times of 1 min each with constant agitation. Outer glumes were removed and florets from all the spikes were aseptically dissected and transferred to a sterile and refrigerated 110 ml Warring blender cup (VWR international, #58983-093) containing 50 ml filter sterilized extraction buffer at 4° C. Florets were then blended twice for 7 s at low speed (18000 rpm). The slurry was then poured through a 1 mm sieve followed by pouring through a 100 μm sterile mesh (VWR International, #CA21008-950) into two 50 ml centrifuge tubes (25 ml each). The blender cup was rinsed with 50 ml extraction buffer at 4° C. and poured through the 100 μm mesh and was added to the first aliquot in the 50 ml tubes. The cells were then pelleted by centrifugation (100×g for 5 min at 4° C.) using a swinging bucket rotor. After pouring off the supernatant, the microspore-containing pellets were pooled together in one 50 ml tube and re-suspended in 50 ml cold extraction buffer. The cells were pelleted again with centrifugation (100×g for 5 min at 4° C.), the supernatant poured off and the pellet was transferred to a 15 ml tube. After re-suspending the pellet in CIMC Wash Buffer supplemented with 10 microM SS-31 peptide, it was subjected to wash and centrifugation using the above conditions. The supernatant was removed and the pellet was re-suspended in CIMC Wash buffer and centrifugation was repeated as above. The pellet was then suspended in 7 mL of 20% maltose at 4° C., layered with 1 mL of CIMC wash buffer and was centrifuged at 100 g for 13 min at 4° C. A band of microspores formed at the interface was collected in a new 15 ml tube. The cells were diluted with CIMC wash solution and subsequently collected by centrifugation at 150 g for 5 min. The supernatant was removed and the cells were finally suspended in a total volume of 1.4 ml of appropriate solution. After counting the cells using a haemocytometer, aliquots of 100,000 cells in 200 μl volume were prepared in 2 ml microcentrifuge tubes to be ready for transduction.
Peptide stock solutions were made in water at 1 μg/μl concentration. CPP (Nanocarrier) and GUS enzyme (cargo) were first prepared in separate microcentrifuge tubes. A total of 4 μg of CPP was prepared in sterile water to a final volume of 100 μl. Similarly, 1 μg of GUS enzyme was added to sterile water to a final volume of 100 μl. The contents of the two tubes were mixed together giving a ratio of 1:4 protein cargo:CPP. The complex was incubated for 30 min at room temperature (RT). Chariot (PAP1) protein delivering reagent was used as a positive control in the experiments. […]

Assay [2] deals with scutellum and somatic embryos of triticale. Kind of assay: CPP delivery of mCherry protein, confocal microscopy. It is filed as cell-based. Particulars: mCherry 1 μM with 60 μM CPP, overnight at RT. From the text: The fluorescent mCherry protein was chosen as the protein, while scutellum (dissected out of immature caryopses) and isolated microspore culture-derived somatic embryos of triticale were used as choice of tissue. Both scutellum and somatic embryos are amenable to tissue culture and can undergo somatic embryogenesis to regenerate green plants providing a direct means to obtain modified plants following a biocompatible CPP induced transduction. Scutellum is representative of a diploid tissue while microspore culture derived somatic embryos is a haploid tissue.
The protein:CPP complex was prepared by individually mixing mCherry protein (1 μM) with 60 μM of the 3 CPPs. Both scutellum and somatic embryos of triticale were treated with these different complex formulations overnight at RT. […] The red fluorescent signal was detected by confocal microscopy within both scutellum and somatic embryo cells.

Assay [3] deals with immature embryos. Kind of assay: Translocation of fluoresceinated CPPs in zygotic embryos, fluorescence microscopy. It is filed as cell-based, Triticale cv AC Alta. As to the method: (§1) The embryos were isolated from spikes two weeks post-anthesis (scutellum diameter 1-2 mm). The immature seeds were surface sterilized with 70% ethanol for 30 s followed by treatment with 10% hypochlorite (Chlorex) and a drop of Tween 20, 3 min. Four washings of 1 min each were given with sterile water. The embryos were hand dissected under sterile conditions. Isolated embryos were placed on GEM medium (Eudes et al, 2003) for 24 h in dark at room temperature prior to CPP translocation studies.
Isolated and sterilized embryos (20-25) were imbibed in total volume of 420 μl permeabilization buffer (15 mM sodium chloride, 1.5 mM sodium citrate, pH 7.1) containing cellular permeabilization agent toluene/ethanol (1:4) in 1:20 ratio with permeabilization buffer. To this 2.1 μl of 1 mM fluoresceinated CPP was added to give a final concentration of 5 μM. In negative controls, the embryos were treated with FITC-dextran sulphate or M-Tat. The embryos were incubated in the permeabilization mix for 1 h in dark at room temperature, followed by two washings with permeabilization buffer. The embryos were then treated with trypsin:EDTA (0.25% solution, Sigma-Aldrich) in 1:2 ratio with permeabilization buffer for 5 min at room temperature to remove free peptide molecules. Embryos were washed two times with permeabilization buffer and subjected either for fluorescence microscopy or spectrofluorimetric analysis.

The subject of a further assay is isolated microspores. Kind of assay: Uptake of fluoresceinated Tat by isolated microspores. It is filed as cell-based. Particulars: no permeabilization. As to the method:
However, permeabilization is not necessary for all cell types. FIG. 2 illustrates the uptake of fluoresceinated Tat by isolated microspores.
Isolated microspores were prepared as described by Amundsen and Eudes, 2005.

The test system of the next assay is Triticale microspores. Kind of assay: DNA-protein co-delivery in microspores, GUS histochemical assay of embryos. It is filed as cell-based. Conditions: 2 months after transfection. The protocol:
Triticale tillers for microspore isolation were kept in the refrigerator (4° C.) for 3 weeks with their bases in distilled water and their heads wrapped in aluminum foil. After 3 weeks±3 days, the mid to late uninucleate microspore stage was verified from a median floret using acetocarmine staining prior to extraction. Isolated microspore was carried in Triticale as published in Eudes and Amundsen (2005) for obtaining purified microspore suspension adjusted to 2.5×10^5 cells per ml of NPB99 medium.
The plasmid (pAct-1 GUS, ˜7.2 kb) was linearized with PstI restriction enzyme and DNA was purified by PCR product purification kit (QIAquick, Qiagen, USA). The GUS DNA was delivered following 7 different treatments (T). […]

Assay [4] concerns immature embryos. Kind of assay: Fluorimetry analysis of relative fluorescence uptake by embryos. It is filed as cell-based, Triticale cv AC Alta. Particulars: permeabilized and non-permeabilized embryos. As to the method: as §1
Isolated and sterilized embryos (20-25) were imbibed in total volume of 420 μl permeabilization buffer (15 mM sodium chloride, 1.5 mM sodium citrate, pH 7.1) containing cellular permeabilization agent toluene/ethanol (1:4) in 1:20 ratio with permeabilization buffer. To this 2.1 μl of 1 mM fluoresceinated CPP was added to give a final concentration of 5 μM. […] Embryos were washed two times with permeabilization buffer and subjected either for fluorescence microscopy or spectrofluorimetric analysis.
For fluorimetric analysis, the embryos were treated with 500 μl of 1% Triton X-100 (prepared in permeabilization buffer), 30 min, at 4° C. The supernatant was collected in a fresh tube and relative fluorescence uptake by the embryos with different CPPs was estimated by fluorimeter (Biorad, Versafluor, USA Excitation 490/Emission 520).

The test system of assay [5] is root tip, leaf tip, leaf base and coleoptile. Conditions: 5 μM fluorescently labeled peptide. As to the method: Triticale seeds were washed with detergent and grown on moist cotton for one week. The root tip, leaf tip, leaf base and coleoptile were excised and incubated with 5 μM of fluorescently labeled pVEC, scrambled pVEC and transportan.

As for RRRRCTRRRTRSRRRPRR [CPP3], the “Average Transduction Efficiency” value in assay [1] came to 57.63%. Also, in assay [2], the “Delivery of mCherry inside the cells, red fluorescent signal” value (“Delivery of mCherry inside the cells” for short) is listed as “able to interact noncovalently with mCherry, subsequently delivering it inside the cells”.
Consider “FI-RKKRRQRRR-amide (fluorescein-RKKRRQRRR-NH2) [TAT-PTD]”, for which the “Uptake seen by fluorescence microscopy (FIG. 1)” value was “most significant uptake; also recorded: distinct layer of accumulation in the scutellum and localized accumulation in the germ area” with immature embryos [3] (in the presence of cellular permeabilizing agent (toluene)); “some fluorescence” in the assay on immature embryos [3] (without cellular permeabilizing agent). The “Uptake of fluoresceinated peptide by isolated microspores (FIG. 2)” value in the assay with isolated microspores was “can penetrate into cells”.
For the substance “RKKRRQRRRRKKRRQRRR (TAT2) [18 amino acid dimer of the PTD of HIV Tat, reference compound]”, in the assay with Triticale microspores, the “Highest numbers of embryos that showed GUS” value is listed as 25.8%. For the same substance, the “Average Transduction Efficiency” value in assay [1] turned out to be 17.50%.
“FI-GWTLNSAGYLLGKINLKALAALAKKIL-amide [Transportan]”: the “Translocation by fluorimetric analysis compared with visual observation” value with immature embryos [4] is “relatively greater translocation”. Moreover, the “Fluorescence in excised seedling tissues” value in assay [5] is given as “maximum florescence”.
Consider RRRRRRRRHLRR [CPP34], for which the “Average Transduction Efficiency” value in assay [1] is given as 47.13%. Further, the “Delivery of mCherry inside the cells” value in assay [2] is given as “able to interact noncovalently with mCherry, subsequently delivering it inside the cells”.
Regarding RRIRRRLRRRPKPRRRRRRR [CPP17], the “Average Transduction Efficiency” value in assay [1] turned out to be 46.54%. Moreover, the “Delivery of mCherry inside the cells” value in assay [2] is “able to interact noncovalently with mCherry, subsequently delivering it inside the cells”.
